According to ChEMBL document CHEMBL1140726, “Discovery and biological evaluation of 5-aryl-2-furfuramides, potent and selective blockers of the Nav1.8 sodium channel with efficacy in models of neuropathic and inflammatory pain” (J Med Chem, 2008):
Each block holds one compound with its values, some of them ahead of it.

Experiments:
[1] = Activity at rat dorsal root ganglion in resting state with prepulse voltage of -100 mV assessed as blockade of TTx-resistant sodium current at 0.1 uM by whole-cell patch clamp technique; assay type: functional
[2] = target: T1, Nav1.5 (sodium channel protein type 5 subunit alpha) (Homo sapiens, UniProt Q14524); assay: Inhibition of human Nav1.5 channel at 1 uM; conditions: human
[3] = target: Voltage-gated inwardly rectifying potassium channel KCNH2 (Homo sapiens, UniProt Q12809); assay: Inhibition of hERG potassium channel expressed in CHO cells by isotope efflux assay
Voltage-gated inwardly rectifying potassium channel KCNH2, sequence (Q12809 whole entry): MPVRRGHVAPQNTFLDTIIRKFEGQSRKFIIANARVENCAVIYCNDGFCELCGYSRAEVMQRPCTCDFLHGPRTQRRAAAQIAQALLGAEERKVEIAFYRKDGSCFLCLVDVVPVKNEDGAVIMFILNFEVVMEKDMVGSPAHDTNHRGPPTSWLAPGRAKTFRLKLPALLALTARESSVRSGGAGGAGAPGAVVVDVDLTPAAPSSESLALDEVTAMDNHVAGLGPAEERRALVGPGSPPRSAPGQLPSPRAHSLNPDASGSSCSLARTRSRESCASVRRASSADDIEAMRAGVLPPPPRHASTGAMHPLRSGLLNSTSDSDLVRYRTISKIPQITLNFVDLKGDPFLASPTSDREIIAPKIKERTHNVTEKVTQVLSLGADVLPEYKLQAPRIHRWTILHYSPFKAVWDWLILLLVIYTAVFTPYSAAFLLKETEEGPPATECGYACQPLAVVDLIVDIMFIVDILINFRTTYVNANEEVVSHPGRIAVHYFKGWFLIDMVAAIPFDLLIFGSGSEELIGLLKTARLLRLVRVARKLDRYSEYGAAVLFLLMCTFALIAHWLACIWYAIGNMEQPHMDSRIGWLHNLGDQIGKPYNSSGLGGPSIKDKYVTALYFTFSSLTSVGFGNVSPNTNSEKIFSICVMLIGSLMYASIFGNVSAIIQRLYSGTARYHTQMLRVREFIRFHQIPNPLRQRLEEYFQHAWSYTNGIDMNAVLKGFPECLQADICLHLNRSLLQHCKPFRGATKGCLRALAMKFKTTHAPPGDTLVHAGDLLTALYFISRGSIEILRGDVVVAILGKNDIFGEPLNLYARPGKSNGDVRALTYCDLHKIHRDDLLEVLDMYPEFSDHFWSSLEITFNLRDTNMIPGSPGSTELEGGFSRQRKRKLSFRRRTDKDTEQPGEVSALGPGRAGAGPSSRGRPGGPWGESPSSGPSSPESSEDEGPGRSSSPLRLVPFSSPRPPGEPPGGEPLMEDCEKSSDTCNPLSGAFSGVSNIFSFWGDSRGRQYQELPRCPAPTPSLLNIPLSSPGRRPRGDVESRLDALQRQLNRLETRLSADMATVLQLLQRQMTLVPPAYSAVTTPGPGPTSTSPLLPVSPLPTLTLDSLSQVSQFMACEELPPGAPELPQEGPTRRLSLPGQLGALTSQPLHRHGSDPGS

[4] = target: T2, Sodium channel protein type 10 subunit alpha (Homo sapiens, UniProt Q9Y5Y9); assay: Inhibition of human recombinant Nav 1.8 channel expressed in HEK293 cells at 0.003 uM; assay type: cell-based
[5] = target: T2, Sodium channel protein type 10 subunit alpha; assay: Activity at human recombinant Nav 1.8 channel expressed in HEK293 cells in resting state with prepulse voltage of -100 mV assessed as blockade of TTx-resistant sodium current at 0.001 uM; assay type: cell-based
[6] = target: T1, Nav1.5 (sodium channel protein type 5 subunit alpha); assay: Inhibition of human Nav1.5 channel at 0.1 uM
[7] = target: Sodium channel protein type 2 subunit alpha (Homo sapiens) (UniProt Q99250); assay: Inhibition of human Nav1.2 channel at 0.1 uM
Sodium channel protein type 2 subunit alpha (Homo sapiens), sequence (Q99250 whole entry, looked up): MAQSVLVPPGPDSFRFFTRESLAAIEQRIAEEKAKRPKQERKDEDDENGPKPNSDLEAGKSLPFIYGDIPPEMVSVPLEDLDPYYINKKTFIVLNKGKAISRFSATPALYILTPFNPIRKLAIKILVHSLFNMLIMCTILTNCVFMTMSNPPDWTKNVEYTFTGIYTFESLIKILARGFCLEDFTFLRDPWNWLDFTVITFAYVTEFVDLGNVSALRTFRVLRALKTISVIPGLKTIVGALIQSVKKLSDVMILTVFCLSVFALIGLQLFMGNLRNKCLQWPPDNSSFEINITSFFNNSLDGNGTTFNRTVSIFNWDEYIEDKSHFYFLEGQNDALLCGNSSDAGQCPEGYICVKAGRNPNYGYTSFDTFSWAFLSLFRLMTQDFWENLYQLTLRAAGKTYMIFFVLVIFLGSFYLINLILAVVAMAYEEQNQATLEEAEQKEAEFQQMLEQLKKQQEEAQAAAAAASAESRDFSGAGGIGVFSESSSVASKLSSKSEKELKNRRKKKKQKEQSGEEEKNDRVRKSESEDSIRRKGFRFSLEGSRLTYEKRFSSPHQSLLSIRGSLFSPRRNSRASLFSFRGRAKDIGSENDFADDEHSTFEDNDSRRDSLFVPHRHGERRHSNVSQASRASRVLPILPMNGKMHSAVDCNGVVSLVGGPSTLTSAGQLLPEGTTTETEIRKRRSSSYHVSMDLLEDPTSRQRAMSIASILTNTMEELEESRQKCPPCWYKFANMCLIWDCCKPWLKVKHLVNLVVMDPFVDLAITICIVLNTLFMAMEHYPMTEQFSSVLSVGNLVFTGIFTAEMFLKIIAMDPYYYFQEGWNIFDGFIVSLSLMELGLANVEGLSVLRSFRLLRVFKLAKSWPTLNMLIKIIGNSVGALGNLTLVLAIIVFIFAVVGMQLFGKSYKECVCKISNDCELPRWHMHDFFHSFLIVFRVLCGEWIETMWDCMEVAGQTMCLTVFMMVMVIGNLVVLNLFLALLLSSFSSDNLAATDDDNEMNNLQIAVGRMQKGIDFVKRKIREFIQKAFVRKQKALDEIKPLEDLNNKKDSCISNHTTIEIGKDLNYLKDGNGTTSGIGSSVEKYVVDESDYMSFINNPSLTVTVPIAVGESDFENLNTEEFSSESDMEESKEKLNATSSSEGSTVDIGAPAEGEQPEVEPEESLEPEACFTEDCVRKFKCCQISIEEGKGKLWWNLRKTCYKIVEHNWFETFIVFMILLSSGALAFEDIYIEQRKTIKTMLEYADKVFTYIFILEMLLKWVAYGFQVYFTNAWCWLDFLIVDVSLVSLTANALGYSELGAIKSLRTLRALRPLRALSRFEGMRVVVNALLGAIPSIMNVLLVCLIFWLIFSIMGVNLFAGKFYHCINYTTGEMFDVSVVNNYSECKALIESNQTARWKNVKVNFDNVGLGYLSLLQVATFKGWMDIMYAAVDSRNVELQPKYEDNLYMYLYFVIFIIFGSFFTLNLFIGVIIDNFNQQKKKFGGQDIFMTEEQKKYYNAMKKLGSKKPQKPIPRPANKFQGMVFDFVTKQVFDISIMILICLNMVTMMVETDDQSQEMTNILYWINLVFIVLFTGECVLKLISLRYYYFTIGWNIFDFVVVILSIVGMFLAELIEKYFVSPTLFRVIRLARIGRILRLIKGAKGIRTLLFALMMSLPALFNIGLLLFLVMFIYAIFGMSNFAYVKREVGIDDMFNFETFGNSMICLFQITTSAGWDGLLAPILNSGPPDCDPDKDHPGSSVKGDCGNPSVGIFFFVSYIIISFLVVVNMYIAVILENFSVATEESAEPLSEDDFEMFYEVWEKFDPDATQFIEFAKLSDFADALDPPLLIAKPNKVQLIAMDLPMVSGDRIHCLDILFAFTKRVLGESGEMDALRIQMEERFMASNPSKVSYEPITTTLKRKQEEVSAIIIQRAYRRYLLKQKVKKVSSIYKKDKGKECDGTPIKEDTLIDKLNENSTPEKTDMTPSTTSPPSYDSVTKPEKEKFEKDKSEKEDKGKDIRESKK

[8] = target: T2, Sodium channel protein type 10 subunit alpha; assay: Activity at human recombinant Nav 1.8 channel expressed in HEK293 cells in resting state with prepulse voltage of -100 mV assessed as blockade of TTx-resistant sodium current at 0.003 uM; assay type: cell-based
[9] = target: T2, Sodium channel protein type 10 subunit alpha; assay: Activity at human recombinant Nav 1.8 channel expressed in HEK293 cells in inactivated state with prepulse voltage of -40 mV assessed as blockade of TTx-resistant sodium current at 0.003 uM; assay type: cell-based
[10] = target: Sodium channel protein type 2 subunit alpha (Homo sapiens) (UniProt Q99250); assay: Inhibition of human Nav1.2 channel at 1 uM
[11] = Activity at rat dorsal root ganglion in inactivated state with prepulse voltage of -40 mV assessed as blockade of TTx-resistant sodium current at 0.1 uM by whole-cell patch clamp technique; assay type: functional
[12] = Activity at rat dorsal root ganglion in resting state with prepulse voltage of -100 mV assessed as blockade of TTx-resistant sodium current at 0.3 uM by whole-cell patch clamp technique; assay type: functional
[13] = Activity at rat dorsal root ganglion in inactivated state with prepulse voltage of -40 mV assessed as blockade of TTx-resistant sodium current at 0.3 uM by whole-cell patch clamp technique; assay type: functional
[14] = target: T2, Sodium channel protein type 10 subunit alpha; assay: Activity at human recombinant Nav 1.8 channel expressed in HEK293 cells in inactivated state with prepulse voltage of -40 mV assessed as blockade of TTx-resistant sodium current at 0.001 uM; assay type: cell-based
[15] = target: Sodium channel protein type 10 subunit alpha (Mus musculus, UniProt Q6QIY3); assay: Inhibition of mouse recombinant Nav 1.8 channel expressed in HEK293 cells by isotopic efflux assay; assay type: cell-based
Sodium channel protein type 10 subunit alpha (Mus musculus, UniProt Q6QIY3), sequence (Q6QIY3 whole entry): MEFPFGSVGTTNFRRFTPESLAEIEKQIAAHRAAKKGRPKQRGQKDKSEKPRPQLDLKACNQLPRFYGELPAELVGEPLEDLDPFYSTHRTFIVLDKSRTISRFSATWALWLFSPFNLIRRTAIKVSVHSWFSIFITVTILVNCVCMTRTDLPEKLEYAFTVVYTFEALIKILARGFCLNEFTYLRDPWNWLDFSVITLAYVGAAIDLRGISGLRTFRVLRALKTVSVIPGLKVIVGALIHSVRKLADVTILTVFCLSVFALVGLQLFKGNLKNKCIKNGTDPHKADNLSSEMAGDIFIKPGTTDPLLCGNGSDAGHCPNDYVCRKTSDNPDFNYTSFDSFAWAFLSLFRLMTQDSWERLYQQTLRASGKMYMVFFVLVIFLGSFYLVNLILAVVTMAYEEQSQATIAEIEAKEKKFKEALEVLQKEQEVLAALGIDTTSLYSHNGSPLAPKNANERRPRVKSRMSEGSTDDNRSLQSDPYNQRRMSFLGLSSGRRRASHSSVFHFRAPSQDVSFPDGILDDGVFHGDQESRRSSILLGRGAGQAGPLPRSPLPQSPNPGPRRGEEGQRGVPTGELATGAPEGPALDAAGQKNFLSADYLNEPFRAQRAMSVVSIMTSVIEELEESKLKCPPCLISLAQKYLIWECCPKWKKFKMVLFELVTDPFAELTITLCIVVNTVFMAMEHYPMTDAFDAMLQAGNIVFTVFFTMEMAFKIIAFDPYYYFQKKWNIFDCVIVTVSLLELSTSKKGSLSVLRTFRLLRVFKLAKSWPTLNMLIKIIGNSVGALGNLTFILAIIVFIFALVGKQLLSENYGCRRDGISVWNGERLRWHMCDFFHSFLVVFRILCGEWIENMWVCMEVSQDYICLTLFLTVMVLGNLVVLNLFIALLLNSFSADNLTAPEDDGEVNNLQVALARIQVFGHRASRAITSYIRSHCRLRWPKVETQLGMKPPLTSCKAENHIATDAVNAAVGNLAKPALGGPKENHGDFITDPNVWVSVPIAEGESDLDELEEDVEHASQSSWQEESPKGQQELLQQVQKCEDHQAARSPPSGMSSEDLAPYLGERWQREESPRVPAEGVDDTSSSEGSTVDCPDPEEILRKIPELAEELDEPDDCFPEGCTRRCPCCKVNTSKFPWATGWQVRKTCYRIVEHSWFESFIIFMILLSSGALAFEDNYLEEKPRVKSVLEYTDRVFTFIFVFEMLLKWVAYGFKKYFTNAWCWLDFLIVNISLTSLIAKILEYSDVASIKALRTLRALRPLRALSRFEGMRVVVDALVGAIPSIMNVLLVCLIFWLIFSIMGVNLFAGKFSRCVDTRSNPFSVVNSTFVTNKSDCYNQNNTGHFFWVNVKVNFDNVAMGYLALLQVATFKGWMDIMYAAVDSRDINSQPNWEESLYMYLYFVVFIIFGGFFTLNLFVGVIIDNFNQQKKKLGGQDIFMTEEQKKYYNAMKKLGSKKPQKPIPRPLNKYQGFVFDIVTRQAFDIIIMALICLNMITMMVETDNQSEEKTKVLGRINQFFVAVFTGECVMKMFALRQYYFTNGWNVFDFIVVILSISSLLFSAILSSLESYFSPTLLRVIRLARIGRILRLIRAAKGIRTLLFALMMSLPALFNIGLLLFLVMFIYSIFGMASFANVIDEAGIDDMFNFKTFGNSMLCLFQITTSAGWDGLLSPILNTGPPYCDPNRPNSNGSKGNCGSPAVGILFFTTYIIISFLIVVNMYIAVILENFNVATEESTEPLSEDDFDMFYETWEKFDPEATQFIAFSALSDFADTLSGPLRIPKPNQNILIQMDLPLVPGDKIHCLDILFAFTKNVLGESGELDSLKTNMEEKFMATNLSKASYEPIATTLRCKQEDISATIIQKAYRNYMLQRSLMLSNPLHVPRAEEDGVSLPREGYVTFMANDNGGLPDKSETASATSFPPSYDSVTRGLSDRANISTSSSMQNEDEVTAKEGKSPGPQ

[16] = target: T2, Sodium channel protein type 10 subunit alpha; assay: Activity at human recombinant Nav 1.8 channel expressed in HEK293 cells in resting state with prepulse voltage of -100 mV assessed as blockade of TTx-resistant sodium current at 1 uM; assay type: cell-based
[17] = target: Sodium channel protein type 3 subunit alpha (Homo sapiens) (UniProt Q9NY46); assay: Inhibition of human Nav1.3 channel at 1 uM
[18] = target: T2, Sodium channel protein type 10 subunit alpha; assay: Activity at human recombinant Nav 1.8 channel expressed in HEK293 cells in inactivated state with prepulse voltage of -40 mV assessed as blockade of TTx-resistant sodium current at 3 uM; assay type: cell-based
[19] = Activity at rat dorsal root ganglion in inactivated state with prepulse voltage of -40 mV assessed as blockade of TTx-resistant sodium current at 1 uM by whole-cell patch clamp technique; assay type: functional
[20] = Activity at rat dorsal root ganglion in resting state with prepulse voltage of -100 mV assessed as blockade of TTx-resistant sodium current at 10 uM by whole-cell patch clamp technique; assay type: functional
[21] = target: T2, Sodium channel protein type 10 subunit alpha; assay: Activity at human recombinant Nav 1.8 channel expressed in HEK293 cells in inactivated state with prepulse voltage of -40 mV assessed as blockade of TTx-resistant sodium current at 1 uM; assay type: cell-based
[22] = target: T2, Sodium channel protein type 10 subunit alpha; assay: Inhibition of human recombinant Nav 1.8 channel expressed in HEK293 cells at 1 uM; assay type: cell-based
[23] = target: T2, Sodium channel protein type 10 subunit alpha; assay: Activity at human recombinant Nav 1.8 channel expressed in HEK293 cells in resting state with prepulse voltage of -100 mV assessed as blockade of TTx-resistant sodium current at 3 uM; assay type: cell-based
[24] = Activity at rat dorsal root ganglion in inactivated state with prepulse voltage of -40 mV assessed as blockade of TTx-resistant sodium current at 10 uM by whole-cell patch clamp technique; assay type: functional
[25] = target: T2, Sodium channel protein type 10 subunit alpha; assay: Inhibition of human recombinant Nav 1.8 channel expressed in HEK293 cells at 3 uM; assay type: cell-based
[26] = Activity at rat dorsal root ganglion in resting state with prepulse voltage of -100 mV assessed as blockade of TTx-resistant sodium current at 1 uM by whole-cell patch clamp technique; assay type: functional
[27] = target: T1, Nav1.5 (sodium channel protein type 5 subunit alpha); assay: Inhibition of human Nav1.5 channel at 0.3 uM
[28] = target: T2, Sodium channel protein type 10 subunit alpha; assay: Inhibition of human recombinant Nav 1.8 channel expressed in HEK293 cells at 0.03 uM; assay type: cell-based
[29] = target: Sodium channel protein type 2 subunit alpha (Homo sapiens) (UniProt Q99250); assay: Inhibition of human Nav1.2 channel at 0.03 uM
[30] = Activity at rat dorsal root ganglion in resting state with prepulse voltage of -100 mV assessed as blockade of TTx-resistant sodium current at 0.03 uM by whole-cell patch clamp technique; assay type: functional
[31] = Activity at rat dorsal root ganglion in inactivated state with prepulse voltage of -40 mV assessed as blockade of TTx-resistant sodium current at 0.003 uM by whole-cell patch clamp technique; assay type: functional
[32] = target: T2, Sodium channel protein type 10 subunit alpha; assay: Activity at human recombinant Nav 1.8 channel expressed in HEK293 cells in resting state with prepulse voltage of -100 mV assessed as blockade of TTx-resistant sodium current at 0.03 uM; assay type: cell-based
[33] = target: Sodium channel protein type 9 subunit alpha (Homo sapiens) (UniProt Q15858); assay: Inhibition of human Nav1.7 channel at 0.3 uM
[34] = target: T1, Nav1.5 (sodium channel protein type 5 subunit alpha); assay: Inhibition of human Nav1.5 channel at 0.03 uM
[35] = Activity at rat dorsal root ganglion in resting state with prepulse voltage of -100 mV assessed as blockade of TTx-resistant sodium current at 0.003 uM by whole-cell patch clamp technique; assay type: functional
[36] = target: T2, Sodium channel protein type 10 subunit alpha; assay: Activity at human recombinant Nav 1.8 channel expressed in HEK293 cells in inactivated state with prepulse voltage of -40 mV assessed as blockade of TTx-resistant sodium current at 0.03 uM; assay type: cell-based
[37] = target: Sodium channel protein type 3 subunit alpha (Homo sapiens) (UniProt Q9NY46); assay: Inhibition of human Nav1.3 channel at 0.3 uM
[38] = Activity at rat dorsal root ganglion in inactivated state with prepulse voltage of -40 mV assessed as blockade of TTx-resistant sodium current at 0.03 uM by whole-cell patch clamp technique; assay type: functional
[39] = target: T2, Sodium channel protein type 10 subunit alpha; assay: Inhibition of human recombinant Nav 1.8 channel expressed in HEK293 cells at 0.001 uM; assay type: cell-based
[40] = target: Sodium channel protein type 2 subunit alpha (Homo sapiens) (UniProt Q99250); assay: Inhibition of human Nav1.2 channel at 0.3 uM

inhibition [4]: 73%
inhibition [5]: 7%
inhibition [7]: 47%
inhibition [8]: 33%
inhibition [9]: 73%
inhibition [10]: 84%
inhibition [14]: 40%
IC50 [15]: 290 nM
Compound: Cc1cccc(NC(=O)c2ccc(-c3ccc(OC(F)(F)F)cc3)o2)c1
inhibition at 0.1 µM [1]: 25%
inhibition at 1 µM [2]: 87%
IC50 [3]: > 30 µM
inhibition at 0.1 µM [6]: 52%
inhibition at 0.1 µM [11]: 40%
inhibition at 0.3 µM [12]: 30%
inhibition at 0.3 µM [13]: 63%

inhibition [16]: 58%
inhibition [17]: 5%
inhibition [18]: 81%
inhibition [21]: 42%
inhibition [22]: 42%
inhibition [23]: 83%
inhibition [10]: 12%
inhibition [25]: 81%
IC50 [15]: 960 nM
Compound: Cc1ccnc(NC(=O)c2ccc(-c3ccc(Cl)cc3)o2)c1
inhibition at 1 µM [2]: 24%
IC50 [3]: > 30 µM
inhibition at 1 µM [19]: 36%
inhibition at 10 µM [20]: 88%
inhibition at 10 µM [24]: 88%
inhibition at 1 µM [26]: 9%

inhibition [28]: 99%
inhibition [29]: 91%
inhibition [32]: 94%
inhibition [33]: 70%
inhibition [5]: 46%
inhibition [36]: 99%
inhibition [37]: 24%
inhibition [14]: 76%
inhibition [39]: 76%
inhibition [40]: 94%
IC50 [15]: 30 nM
Compound: Cc1cccc(N/C(=N/C#N)c2ccc(-c3ccc(Cl)cc3)o2)c1
inhibition at 0.3 µM [27]: 69%
inhibition at 0.03 µM [30]: 45%
inhibition at 0.003 µM [31]: 51%
IC50 [3]: > 30 µM
inhibition at 0.03 µM [34]: 32%
inhibition at 0.003 µM [35]: 22%
inhibition at 0.03 µM [38]: 71%
